5 compounds from ChEMBL document CHEMBL1146844, “Probing a water channel near the A-ring of receptor-bound 1 alpha,25-dihydroxyvitamin D3 with selected 2 alpha-substituted analogues” (J Med Chem, 2006) can be followed below.

Calls of active or inactive are those of the source. No cut-off for these calls is given here.

The subject of this experiment is HL-60. Nature of the experiment: Induction of HL60 cell differentiation in correlation with affinity to human VDR. The format is functional, cell-based.
For the compound `C=C1/C(=C\C=C2/CCC[C@]3(C)[C@@H]([C@H](C)CCCC(C)(C)O)CC[C@@H]23)C[C@H](O)[C@@H](OCCC)[C@H]1O`, the result was inactive.
In the case of `C=C1/C(=C\C=C2/CCC[C@]3(C)[C@@H]([C@H](C)CCCC(C)(C)O)CC[C@@H]23)C[C@@H](O)[C@H](OCCCO)[C@@H]1O`, the result was inactive.
Consider `C=C1/C(=C\C=C2/CCC[C@]3(C)[C@@H]([C@H](C)CCCC(C)(C)O)CC[C@@H]23)C[C@@H](O)[C@H](CCC)[C@@H]1O`, for which the outcome was Active.
In the case of `C=C1/C(=C\C=C2/CCC[C@]3(C)[C@@H]([C@H](C)CCCC(C)(C)O)CC[C@@H]23)C[C@@H](O)[C@H](CCCO)[C@@H]1O` it was “Active”; in that of `C=C1/C(=C\C=C2/CCC[C@]3(C)[C@@H]([C@H](C)CCCC(C)(C)O)CC[C@@H]23)C[C@@H](O)[C@H](C)[C@@H]1O`, “Active”.
